Holding throughout (experiment): relative viability (nuclei count vs DMSO), 5 days (fraction); higher = more cells survive
Compound in the assay “FH535 + Phenformin”: CC1=C(C=CC(=C1)[N+](=O)[O-])NS(=O)(=O)C2=C(C=CC(=C2)Cl)Cl [FH535] + N=C(N)NC(=N)NCCc1ccccc1 [Phenformin] (partner 250 µM)
The procedure, abridged: (§1)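 After 5 days of treatment, lung cancer cells in 1536-well plates were fixed and stained in a single step (final 0.05% Triton X-100, 1% formaldehyde, 1 ug/ml Hoechst) and their nuclei counted on 4× images. Treatment had been applied by pin tool the day after seeding as one drug alone or as a fixed anchor-drug dose with five library-drug doses (not always all listed) in √10 steps. Relative viability is the nuclei count of treated wells divided by that of vehicle wells, and values are medians of duplicate plates.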

Compound in the assay “FH535 + Alpelisib”: CC1=C(C=CC(=C1)[N+](=O)[O-])NS(=O)(=O)C2=C(C=CC(=C2)Cl)Cl [FH535] + Cc1nc(NC(=O)N2CCC[C@H]2C(N)=O)sc1-c1ccnc(C(C)(C)C(F)(F)F)c1 [Alpelisib] (partner 2 µM)
The procedure, abridged:
as §1

Compound in the assay “FH535 + Vorinostat”: CC1=C(C=CC(=C1)[N+](=O)[O-])NS(=O)(=O)C2=C(C=CC(=C2)Cl)Cl [FH535] + O=C(CCCCCCC(=O)Nc1ccccc1)NO [Vorinostat] (partner 1 µM)
The method, boiled down:
as §1

Compound in the assay “FH535 + Pictilisib”: CC1=C(C=CC(=C1)[N+](=O)[O-])NS(=O)(=O)C2=C(C=CC(=C2)Cl)Cl [FH535] + CS(=O)(=O)N1CCN(Cc2cc3nc(-c4cccc5[nH]ncc45)nc(N4CCOCC4)c3s2)CC1 [Pictilisib] (partner 1 µM)
The method, boiled down: as §1

Compound in the assay “FH535 + Tozasertib”: CC1=C(C=CC(=C1)[N+](=O)[O-])NS(=O)(=O)C2=C(C=CC(=C2)Cl)Cl [FH535] + Cc1cc(Nc2cc(N3CCN(C)CC3)nc(Sc3ccc(NC(=O)C4CC4)cc3)n2)n[nH]1 [Tozasertib] (partner 0.1 µM)
The method, boiled down: as §1

Consider 201T, for which the relative viability in the assay with FH535 + Phenformin (first compound 0.04 µM) was 0.402; with FH535 + Phenformin (first compound 0.1265 µM), 0.45; with FH535 + Phenformin (first compound 0.4 µM), 0.397; with FH535 + Phenformin (first compound 1.265 µM), 0.321; with FH535 + Alpelisib (first compound 0.04 µM), 1.02; in the assay with FH535 + Alpelisib (first compound 0.1265 µM) it was 1.01. Further, the relative viability in the assay with FH535 + Alpelisib (first compound 0.4 µM) stood at 1.02; with FH535 + Alpelisib (first compound 1.265 µM), 1; with FH535 + Vorinostat (first compound 0.04 µM), 0.905; in the assay with FH535 + Vorinostat (first compound 0.1265 µM), 0.948; with FH535 + Vorinostat (first compound 0.4 µM), 0.855; in the assay with FH535 + Vorinostat (first compound 1.265 µM), 0.929. Moreover, the relative viability with FH535 + Pictilisib (first compound 0.04 µM) amounted to 0.662; in the assay with FH535 + Pictilisib (first compound 0.1265 µM), 0.726; with FH535 + Pictilisib (first compound 0.4 µM) it was 0.632; in the assay with FH535 + Pictilisib (first compound 1.265 µM) it was 0.627; with FH535 + Tozasertib (first compound 0.04 µM), 0.919; with FH535 + Tozasertib (first compound 0.1265 µM) it was 0.953. In addition, the results for the relative viability with FH535 + Tozasertib (first compound 0.4 µM) and with FH535 + Tozasertib (first compound 1.265 µM) were 0.976 and 0.743, respectively.

Turning to A-427, the relative viability in the assay with FH535 + Phenformin (first compound 0.04 µM) was 0.272; with FH535 + Phenformin (first compound 0.1265 µM), 0.331; with FH535 + Phenformin (first compound 0.4 µM), 0.215; in the assay with FH535 + Phenformin (first compound 1.265 µM), 0.135; with FH535 + Alpelisib (first compound 0.04 µM) it was 1.08; with FH535 + Alpelisib (first compound 0.1265 µM) it was 1.04. In addition, the relative viability came to 1.02 with FH535 + Alpelisib (first compound 0.4 µM); 1.04 in the assay with FH535 + Alpelisib (first compound 1.265 µM); 0.862 in the assay with FH535 + Vorinostat (first compound 0.04 µM); 0.846 with FH535 + Vorinostat (first compound 0.1265 µM); 0.845 in the assay with FH535 + Vorinostat (first compound 0.4 µM); 0.725 with FH535 + Vorinostat (first compound 1.265 µM). The relative viability with FH535 + Pictilisib (first compound 0.04 µM) is 0.642; with FH535 + Pictilisib (first compound 0.1265 µM), 0.83; with FH535 + Pictilisib (first compound 0.4 µM), 0.551; with FH535 + Pictilisib (first compound 1.265 µM), 0.685; in the assay with FH535 + Tozasertib (first compound 0.04 µM) it was 0.175; with FH535 + Tozasertib (first compound 0.1265 µM), 0.205. The results for the relative viability with FH535 + Tozasertib (first compound 0.4 µM) and with FH535 + Tozasertib (first compound 1.265 µM) were 0.243 and 0.159, respectively.

As for ABC-1, the relative viability was 0.263 with FH535 + Phenformin (first compound 0.04 µM); 0.209 in the assay with FH535 + Phenformin (first compound 0.1265 µM); 0.184 with FH535 + Phenformin (first compound 0.4 µM); 0.179 with FH535 + Phenformin (first compound 1.265 µM); 1.18 with FH535 + Alpelisib (first compound 0.04 µM); 1.25 in the assay with FH535 + Alpelisib (first compound 0.1265 µM). The relative viability was 0.954 in the assay with FH535 + Alpelisib (first compound 0.4 µM); 1.29 in the assay with FH535 + Alpelisib (first compound 1.265 µM); 0.944 in the assay with FH535 + Vorinostat (first compound 0.04 µM); 1 in the assay with FH535 + Vorinostat (first compound 0.1265 µM); 0.934 with FH535 + Vorinostat (first compound 0.4 µM); 0.607 in the assay with FH535 + Vorinostat (first compound 1.265 µM). Besides, the relative viability came to 0.601 in the assay with FH535 + Pictilisib (first compound 0.04 µM); 0.878 with FH535 + Pictilisib (first compound 0.1265 µM); 0.702 with FH535 + Pictilisib (first compound 0.4 µM); 0.735 in the assay with FH535 + Pictilisib (first compound 1.265 µM); 0.181 with FH535 + Tozasertib (first compound 0.04 µM); 0.216 with FH535 + Tozasertib (first compound 0.1265 µM). The relative viability with FH535 + Tozasertib (first compound 0.4 µM) is 0.218; in the assay with FH535 + Tozasertib (first compound 1.265 µM), 0.217.

As to BEN, the relative viability with FH535 + Phenformin (first compound 0.04 µM) was found to be 0.231; in the assay with FH535 + Phenformin (first compound 0.1265 µM), 0.25; in the assay with FH535 + Phenformin (first compound 0.4 µM) it was 0.263; with FH535 + Phenformin (first compound 1.265 µM), 0.221; in the assay with FH535 + Alpelisib (first compound 0.04 µM), 0.929; in the assay with FH535 + Alpelisib (first compound 0.1265 µM), 0.998. Also, the relative viability in the assay with FH535 + Alpelisib (first compound 0.4 µM) was 0.868; with FH535 + Alpelisib (first compound 1.265 µM), 0.748; with FH535 + Vorinostat (first compound 0.04 µM), 0.51; in the assay with FH535 + Vorinostat (first compound 0.1265 µM) it was 0.583; with FH535 + Vorinostat (first compound 0.4 µM) it was 0.548; with FH535 + Vorinostat (first compound 1.265 µM), 0.525. Besides, the relative viability in the assay with FH535 + Pictilisib (first compound 0.04 µM) was 0.548; with FH535 + Pictilisib (first compound 0.1265 µM), 0.617; in the assay with FH535 + Pictilisib (first compound 0.4 µM) it was 0.459; with FH535 + Pictilisib (first compound 1.265 µM) it was 0.41; in the assay with FH535 + Tozasertib (first compound 0.04 µM), 0.547; with FH535 + Tozasertib (first compound 0.1265 µM), 0.483. In addition, the relative viability with FH535 + Tozasertib (first compound 0.4 µM) amounted to 0.483; in the assay with FH535 + Tozasertib (first compound 1.265 µM), 0.487.

In the case of CAL-12T, the relative viability with FH535 + Phenformin (first compound 0.04 µM) was determined as 0.515; with FH535 + Phenformin (first compound 0.1265 µM), 0.514; with FH535 + Phenformin (first compound 0.4 µM), 0.403; in the assay with FH535 + Phenformin (first compound 1.265 µM), 0.316; in the assay with FH535 + Alpelisib (first compound 0.04 µM), 1.21; with FH535 + Alpelisib (first compound 0.1265 µM), 1.16. For the same cell line, the relative viability turned out to be 1.06 in the assay with FH535 + Alpelisib (first compound 0.4 µM); 1.01 with FH535 + Alpelisib (first compound 1.265 µM); 0.562 in the assay with FH535 + Vorinostat (first compound 0.04 µM); 0.927 with FH535 + Vorinostat (first compound 0.1265 µM); 0.802 with FH535 + Vorinostat (first compound 0.4 µM); 0.492 with FH535 + Vorinostat (first compound 1.265 µM). Further, the relative viability with FH535 + Pictilisib (first compound 0.04 µM) was 0.392; with FH535 + Pictilisib (first compound 0.1265 µM) it was 0.362; in the assay with FH535 + Pictilisib (first compound 0.4 µM) it was 0.29; with FH535 + Pictilisib (first compound 1.265 µM), 0.334; with FH535 + Tozasertib (first compound 0.04 µM), 0.288; with FH535 + Tozasertib (first compound 0.1265 µM), 0.324. Besides, the relative viability with FH535 + Tozasertib (first compound 0.4 µM) was 0.243; in the assay with FH535 + Tozasertib (first compound 1.265 µM), 0.212.

Regarding COR-L23, the relative viability in the assay with FH535 + Phenformin (first compound 0.04 µM) is 0.423; with FH535 + Phenformin (first compound 0.1265 µM) it was 0.486; with FH535 + Phenformin (first compound 0.4 µM) it was 0.342; with FH535 + Phenformin (first compound 1.265 µM), 0.217; with FH535 + Alpelisib (first compound 0.04 µM), 0.799; with FH535 + Alpelisib (first compound 0.1265 µM), 0.718. Also, the relative viability was determined as 0.681 with FH535 + Alpelisib (first compound 0.4 µM); 0.499 with FH535 + Alpelisib (first compound 1.265 µM); 0.442 in the assay with FH535 + Vorinostat (first compound 0.04 µM); 0.462 with FH535 + Vorinostat (first compound 0.1265 µM); 0.422 with FH535 + Vorinostat (first compound 0.4 µM); 0.343 in the assay with FH535 + Vorinostat (first compound 1.265 µM). The relative viability in the assay with FH535 + Pictilisib (first compound 0.04 µM) was found to be 0.734; in the assay with FH535 + Pictilisib (first compound 0.1265 µM), 0.816; in the assay with FH535 + Pictilisib (first compound 0.4 µM), 0.624; with FH535 + Pictilisib (first compound 1.265 µM), 0.531; with FH535 + Tozasertib (first compound 0.04 µM), 0.183; with FH535 + Tozasertib (first compound 0.1265 µM), 0.17. In addition, the values for the relative viability in the assay with FH535 + Tozasertib (first compound 0.4 µM) and with FH535 + Tozasertib (first compound 1.265 µM) were 0.185 and 0.167, respectively.

As for COR-L 105, the relative viability is 0.411 with FH535 + Phenformin (first compound 0.04 µM); 0.461 in the assay with FH535 + Phenformin (first compound 0.1265 µM); 0.405 in the assay with FH535 + Phenformin (first compound 0.4 µM); 0.382 in the assay with FH535 + Phenformin (first compound 1.265 µM); 1.09 in the assay with FH535 + Alpelisib (first compound 0.04 µM); 1.17 in the assay with FH535 + Alpelisib (first compound 0.1265 µM). Further, the relative viability with FH535 + Alpelisib (first compound 0.4 µM) stood at 0.789; with FH535 + Alpelisib (first compound 1.265 µM) it was 0.971; in the assay with FH535 + Vorinostat (first compound 0.04 µM) it was 0.793; with FH535 + Vorinostat (first compound 0.1265 µM), 0.857; in the assay with FH535 + Vorinostat (first compound 0.4 µM), 0.848; with FH535 + Vorinostat (first compound 1.265 µM) it was 0.876. Moreover, the relative viability in the assay with FH535 + Pictilisib (first compound 0.04 µM) is 0.27; in the assay with FH535 + Pictilisib (first compound 0.1265 µM), 0.385; in the assay with FH535 + Pictilisib (first compound 0.4 µM), 0.384; with FH535 + Pictilisib (first compound 1.265 µM) it was 0.394; with FH535 + Tozasertib (first compound 0.04 µM), 0.359; with FH535 + Tozasertib (first compound 0.1265 µM), 0.339. In addition, the results for the relative viability with FH535 + Tozasertib (first compound 0.4 µM) and in the assay with FH535 + Tozasertib (first compound 1.265 µM) were 0.337 and 0.304, respectively.

These data come from the supplement of paper PMC10307832.
